For series [1], the system named is MDA-MB-231 breast cancer cells. In words: MTT colorimetric cell viability assay, MDA-MB-231 cells. It counts as cell-based. The method, then: (§1) Other cell lines used in this study include, MDA-MB-231 (estrogen receptor negative, ER−ve), MCF-7 (ER+ve) were also purchased from ATCC and were cultured as previously described.^44, 45 LTLC and LTLT-Ca were kindly provided by Dr. Angela Brodie, University of Maryland, Baltimore, and details of their phenotypes and culturing conditions are as previously reported.^46, 47 MCF-7TAM and MCF-7HoxB-7 were provided by Dr. Sara Sukumar of Johns Hopkins University, Baltimore, and details of their phenotypes and culturing conditions are as previously reported.^48 Except for MCF-7 breast cancer cell all other breast cancer cells used in this study are insensitive to endocrine therapeutic agents and to most anti-cancer agents.
(§2) The MTT (3-[4,5-dimethylthiazol-2-yl]-2,5-diphenyltetrazolium bromide) assay was used to measure the cell viability. MDA-MB-231 cells (1.0×10^3 cells/ml) were seeded into 96 well plates. Cells were treated with the compound on day 2 at different concentrations. On the 5th day, the medium was removed and […] of a 0.5 mg/ml MTT solution was added to each well. The plates were incubated at 37° C. for 2 hours and 200 μL of DMSO was added. The yellow tetrazolium salt (MTT) is reduced to a purple formazan product by the mitochondrial dehydrogenase from living cells. The product is then detected by spectrophotometry at 560 nm.
as §2, with “viability. PC-3 cells or” for “viability.”, “compounds” for “compound”

For series [2], the system named is PC-3 prostate cancer cells. In words: MTT cell growth inhibition assay, PC-3 cells. It counts as cell-based, human. On the procedure:
PC-3 (androgen receptor negative, AR−ve) cells were obtained from American Type Culture Collection (ATCC, Rockville, Md., USA). Cells were maintained in RPMI 1640 medium (Gibco, Invitrogen, Carlsbad, Calif., USA) supplemented with 10% fetal bovine serum (Atlanta Biologicals, Lawrenceville, Ga., USA) and 1% penicillin/streptomycin. Cells were grown as a monolayer in T75 tissue culture flasks in a humidified incubator (5% CO2, 95% air) at 37° C.
(§3) PC-3 cells were seeded in 24 well plates (Corning Costar) at a density of 2×10^4 cells per well per 1 mL of medium. Cells were allowed to adhere to the plate for 24 hours and then treated with different concentrations of ATRA, HDIs or mutual prodrugs dissolved in 10% DMSO, 90% ethanol. Cells were treated for five days with renewal of prodrug and media on day 3. On the fifth day, medium was renewed and 100 μL of MTT (3-(4,5-dimethylthiazol-2-yl)-2,5-diphenyl-2H-tetrazolium bromide from Sigma) solution (0.5 mg MTT/mL of media) was added to the medium such that the ratio of MTT:medium was 1:10. The cells were incubated with MTT for 2 hours. The medium was then aspirated and 500 μL of DMSO was added to solubilize the violet MTT-formazan product. The absorbance at 560 nm was measured by spectrophotometry (Victor 1420 multilabel counted, Wallac). For each concentration of agent or mutual prodrugs there were triplicate wells in each independent experiment. GI50 values were calculated by nonlinear regression analysis using GraphPad Prism software.
as §2, with “viability. PC-3 cells or” for “viability.”, “compounds” for “compound”
To assess the effect of mutual prodrugs on cell growth, PC-3 and MDA-MB-231 cells were treated with mutual prodrugs for […], respectively. […] In this cell line, the order of potency was VNLG/66>VNLG/114>VNLG/122>VNLG/124>VNLG/60. The efficacies of mutual prodrugs were compared to the efficacies of ATRA or HDIs alone in PC-3 prostate cancer cells. […] The reason(s) for these differential potencies of the different mutual prodrugs in PC-3 cells are unknown at this time, but may be idiosyncratic, possibly due to extents and efficiencies of cell membrane penetration and/or intracellular cleavage of mutual prodrugs.

For series [3], the system named is MCF-7HOX-B7. In words: MTT cell growth inhibition, MCF-7HOX-B7 cells. It counts as cell-based. On the procedure:
as §1, §3
(§4) Given the potency of most of the mutual prodrugs of the present invention, in MDA-MB-231 and PC-3 cell lines, their effects on the growth of some known drug-resistant breast cancer cell lines, including MCF-7TAMR, MCF-7Hox-B7, LTLC and LTLT-Ca was tested compared to parental MCF-7 cells.

Series [4] deals with MCF-7TAMR. In words: MTT cell growth inhibition, MCF-7TAMR cells. It counts as cell-based. On the procedure: as §1, §3, §4
Series [5] deals with MCF-7. Nature of the series: MTT cell growth inhibition, MCF-7 cells. It counts as cell-based. The method, then: as §1, §3, §4
Where [6] appears, read: Homo sapiens, MDA-MB-231, dose-response curves, at least three independent experiments, SEM < 10%, read-out: GI50 Values, MDA-MB-231 breast cancer cells.
Where [7] appears, read: Homo sapiens, PC-3, dose-response curves, at least three independent experiments, SEM < 10%, read-out: GI50 Values, PC-3 prostate cancer cells.
Setting [8] is: Homo sapiens, MDA-MB-231, read-out: GI50, MDA-MB-231 cells.

This is an account of results in patent US20100184812A1, “MUTUAL PRODRUGS AND METHODS TO TREAT CANCER” (UNIVERSITY OF MARYLAND, BALTIMORE, priority 2007, published 2010).

“Also recorded” adds a separate entry of the source. Where two headings read alike, the source gives them in different places.

Regarding `CC1=C(/C=C/C(C)=C/C=C/C(C)=C/C(=O)O)C(C)(C)CCC1` [ATRA, all-trans retinoic acid, reference compound], the GI50 (in general, the concentration at which growth is held to half of that of the control) is 10.8 µM in series [1] (setting [6]) and 7600 nM in series [2] (setting [7]).
The corresponding values for `CC(=O)Nc1ccc(C(=O)Nc2ccccc2N)cc1` [CI-994, N-(2′-aminophenyl)-4-acetylaminobenzamide, reference compound] are 0.17 µM and 290 nM.
With `Nc1ccccc1NC(=O)c1ccc(CNC(=O)OCc2cccnc2)cc1` [MS-275, N-(2-aminophenyl)4-[N-(pyridine-3-yl-methoxy-carbonyl)aminomethyl]benzamide, reference compound], the 50% growth inhibitory concentration (GI50) in series [1] (setting [6]) is 0.009 µM; in series [2] (Homo sapiens, PC-3, read-out: GI50, PC-3 cells), 190 nM; in series [2] (setting [7]), 190 nM.
For the compound `CCCC(=O)[O-].[Na+]` [Sodium butyrate (BA), Sodium butyrate, reference compound], the GI50 in series [1] (setting [6]) is more than 1000 µM; in series [2] (Homo sapiens, PC-3, read-out: GI50 Values, PC-3 prostate cancer cells), 72400 nM.
`CC(=O)Nc1ccc(C(=O)Nc2ccccc2NC(=O)CNC(=O)OCOC(=O)/C=C(C)/C=C/C=C(C)/C=C/C2=C(C)CCCC2(C)C)cc1` [VNLG/60, (N-{[N-(2-{[4-(Acetylamino)phenyl]carbonylamino}phenyl)carbamoyl]methyl}carbamoyloxy)methyl(2E,4E,6E,8E)-3,7-dimethyl-9-(2,6,6-trimethylcyclohex-1-enyl)nona-2,4,6,8-tetraenoate]: the 50% growth inhibitory concentration (GI50) stood at 1200 nM in series [3]; 170 nM in series [4]; 0.63 µM in series [1] (setting [8]); 4.3 µM in series [1] (Homo sapiens, MDA-MB-231, MTT assay, FIG. 1C, read-out: GI50, MDA-MB-231 (FIG. 1C)); 0.63 µM in series [1] (setting [6]); 4270 nM in series [2] (setting [7]). Further, in series [5] (Homo sapiens, MCF7), the GI50 stood at 250 nM. The “growth inhibitory effect versus parent drugs alone or in combination” value in series [1] (MDA-MB-231) was “synergistic growth inhibitory effect”.
Regarding `CC1=C(/C=C/C(C)=C/C=C/C(C)=C/C(=O)Oc2ccc(COC(=O)Nc3ccccc3NC(=O)c3ccc(NCC(=O)OCc4cccnc4)cc3)cc2)C(C)(C)CCC1` [VNLG/114, 4-{[N-(2-{[4-({[(3-Pyridylmethyl)oxycarbonyl]methyl}amino)phenyl]carbonylamino}phenyl)carbamoyloxy]methyl}phenyl(2E,4E,6E,8E)-3,7-dimethyl-9-(2,6,6-trimethylcyclohex-1-enyl)nona-2,4,6,8-tetraenoate], the melting point (as a rule, the temperature of the solid-liquid transition) was in the range of 128 to 130 °C. Moreover, it took 720 nM to inhibit growth in series [3] by half (GI50). This compound also showed a concentration for 50% growth inhibition (GI50) in series [4] of 210 nM. Further, the 50% growth inhibitory concentration (GI50) in series [1] (setting [6]) was 0.17 µM. Also, in series [1] (MDA-MB-231), the “growth inhibitory effect versus parent drugs alone or in combination” value is “synergistic growth inhibitory effect; also recorded: significant increase”. For the same compound, the concentration for 50% growth inhibition (GI50) in series [2] (setting [7]) turned out to be 180 nM. Moreover, in series [5] (Homo sapiens, MCF7), the GI50 turned out to be 60 nM.
For the compound `CC(=O)Nc1ccc(C(=O)Nc2ccccc2NC(=O)OCc2ccc(OC(=O)/C=C(C)/C=C/C=C(C)/C=C/C3=C(C)CCCC3(C)C)cc2)cc1` [VNLG/122, 4-{[N-2-{[4-(Acetylamino)phenyl]carbonylamino}phenyl0carbamoyloxy]methyl}phenyl(2E,4E,6E,8E) -3,7-dimethyl-9-(2,6,6-trimethylcyclohex-1-enyl)nona-2,4,6,8-tetraenoate], the GI50 in series [3] (MCF-7HOX-B7) worked out at 8130 nM; in series [4] (MCF-7TAMR) it was 80 nM; in series [1] (MDA-MB-231, dose-response curves, at least three independent experiments, SEM < 10%, read-out: GI50 Values, MDA-MB-231 breast cancer cells) it was 0.02 µM; in series [1] (MDA-MB-231, read-out: GI50, MDA-MB-231 cells) it was 0.02 µM; in series [2] (PC-3, dose-response curves, at least three independent experiments, SEM < 10%, read-out: GI50 Values, PC-3 prostate cancer cells), 870 nM; in series [5] (MCF-7), 520 nM. The “GI50 fold difference to VNLG/60” value in series [1] (MDA-MB-231) was 31.5 fold. Moreover, in series [1] (MDA-MB-231), the “GI50 fold lower than ATRA” value is recorded as 543 fold. Besides, the “GI50 fold lower than CI-994” value in series [1] (MDA-MB-231) amounted to 8.5 fold.
Turning to `CCCC(=O)OCc1ccc(OC(=O)/C=C(C)/C=C/C=C(C)/C=C/C2=C(C)CCCC2(C)C)cc1` [VNLG/124, 4-(Butanoyloxymethyl)phenyl(2E,4E,6E,8E)-3,7-dimethyl-9-(2,6,6-trimethylcyclohex-1-enyl)nona-2,4,6,8-tetraenoate], the GI50 came out at 0.01 µM in series [1] (setting [8]); 0.048 µM in series [1] (Homo sapiens, MDA-MB-231, head-to-head with 3, FIG. 7, read-out: GI50 for inhibition of growth of MDA-MB-231 cells, head-to-head (FIG. 7)); 0.01 µM in series [1] (setting [6]); 1700 nM in series [2] (Homo sapiens, PC-3, FIG. 9, combination = increasing ATRA with BA 10.0 μM, read-out: GI50, PC-3 dose-response curves (FIG. 9)); 1020 nM in series [2] (setting [7]). Besides, in series [1] (MDA-MB-231), the “GI50 fold lower than ATRA” value is 1085 fold. In addition, in series [1] (MDA-MB-231), the “GI50 fold lower than BA” value was “over 100,000 fold”. For the same compound, the “growth inhibitory effect versus parent drugs alone or in combination” value in series [1] (MDA-MB-231) and in series [2] (PC3) was “significant increase” in each case. For the same compound, in series [1] (MDA-MB-231, FIG. 7), the “GI50 fold lower than that of 3” value is listed as 25 fold. Moreover, the inhibition (commonly the relative decrease from the control value, in per cent) at 20 µM in series [2] (Homo sapiens, PC-3, 20 μM, FIG. 8) was approximately 80%. Besides, the “GI50 fold lower than the combination of ATRA and BA” value in series [2] (PC-3, FIG. 9) turned out to be 15 fold.
For the compound `CCCC(=O)OCOC(=O)C=C(C)C=CC=C(C)C=CC1=C(C)CCCC1(C)C` [compound 3, retinoyloxymethyl butyrate, reference compound], the GI50 in series [1] (MDA-MB-231, head-to-head with VNLG/124, FIG. 7, read-out: GI50 for inhibition of growth of MDA-MB-231 cells, head-to-head (FIG. 7)) was 1.18 µM.
In the case of `CC1=C(/C=C/C(C)=C/C=C/C(C)=C/C(=O)Oc2ccc(CO)cc2)C(C)(C)CCC1` [compound 16, 4-(Hydroxymethyl)phenyl(2E,4E,6E,8E)-3,7-dimethyl-9-(2,6,6-trimethylcyclohex-1-enyl)nona-2,4,6,8-tetraenoate], the GI50 in series [2] (setting [7]) came out at 1020 nM. Besides, the “GI50 fold lower than that of butyric acid (BA)” value in series [2] (PC-3) was 74 fold.
